What all share (format): binding
For test [1], the target named is T1, panel of 442 kinases (Homo sapiens, UniProt P08069).
T1 construct: purchased KINOMEscan
The note with it: Compound Concentration 10 µM. From the text:
(§1) We assessed the selectivity of members of this scaffold using the KINOMEscan methodology across a near comprehensive panel of 442 kinases [[18,27]].

The target in test [2] is T2, panel of 442 kinases (Homo sapiens, UniProt P53671).
T2 construct: purchased KINOMEscan
The note with it: Compound Concentration 10 µM.
Description: as §1

Test [3] addresses T3, panel of 442 kinases (Homo sapiens, UniProt P78362).
T3 construct: purchased KINOMEscan
The note with it: kinase SRPK2; compound concentration 10 µM.
Description: as §1

T3 sequence (P78362 whole entry): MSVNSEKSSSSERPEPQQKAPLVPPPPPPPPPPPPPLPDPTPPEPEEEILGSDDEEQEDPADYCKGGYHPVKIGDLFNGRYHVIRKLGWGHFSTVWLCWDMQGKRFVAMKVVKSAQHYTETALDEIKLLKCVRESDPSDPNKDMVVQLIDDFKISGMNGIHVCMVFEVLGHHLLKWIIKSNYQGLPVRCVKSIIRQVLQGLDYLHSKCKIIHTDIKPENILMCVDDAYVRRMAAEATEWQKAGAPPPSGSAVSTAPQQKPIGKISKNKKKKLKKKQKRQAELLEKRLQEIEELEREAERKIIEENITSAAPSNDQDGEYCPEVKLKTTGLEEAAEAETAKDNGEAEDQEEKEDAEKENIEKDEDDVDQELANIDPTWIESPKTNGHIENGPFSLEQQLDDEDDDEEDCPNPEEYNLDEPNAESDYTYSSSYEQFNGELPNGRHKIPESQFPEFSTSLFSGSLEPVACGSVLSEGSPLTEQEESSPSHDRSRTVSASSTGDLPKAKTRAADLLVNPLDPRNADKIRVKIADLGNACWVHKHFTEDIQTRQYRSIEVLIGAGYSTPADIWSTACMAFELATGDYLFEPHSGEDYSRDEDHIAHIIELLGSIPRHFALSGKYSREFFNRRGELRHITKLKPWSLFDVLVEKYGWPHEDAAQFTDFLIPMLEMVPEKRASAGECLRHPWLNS
T2 sequence (P53671 whole entry): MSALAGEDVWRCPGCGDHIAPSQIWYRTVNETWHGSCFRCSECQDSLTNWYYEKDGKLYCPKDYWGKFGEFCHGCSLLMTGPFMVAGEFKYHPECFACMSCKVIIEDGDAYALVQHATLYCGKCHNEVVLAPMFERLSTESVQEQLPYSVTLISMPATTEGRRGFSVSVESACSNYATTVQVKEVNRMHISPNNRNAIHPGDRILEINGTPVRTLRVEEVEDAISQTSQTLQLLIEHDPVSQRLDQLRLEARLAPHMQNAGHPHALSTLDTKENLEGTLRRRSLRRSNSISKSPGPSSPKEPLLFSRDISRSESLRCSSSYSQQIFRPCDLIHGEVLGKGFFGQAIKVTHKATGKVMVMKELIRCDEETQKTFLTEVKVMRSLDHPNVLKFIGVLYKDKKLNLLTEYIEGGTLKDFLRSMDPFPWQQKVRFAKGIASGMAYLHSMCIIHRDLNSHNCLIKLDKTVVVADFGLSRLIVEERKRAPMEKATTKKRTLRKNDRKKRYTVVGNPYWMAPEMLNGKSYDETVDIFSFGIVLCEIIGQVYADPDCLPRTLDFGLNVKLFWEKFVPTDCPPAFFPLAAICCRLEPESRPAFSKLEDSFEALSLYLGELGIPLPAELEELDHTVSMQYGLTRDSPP
T1 sequence (P08069 31-1367): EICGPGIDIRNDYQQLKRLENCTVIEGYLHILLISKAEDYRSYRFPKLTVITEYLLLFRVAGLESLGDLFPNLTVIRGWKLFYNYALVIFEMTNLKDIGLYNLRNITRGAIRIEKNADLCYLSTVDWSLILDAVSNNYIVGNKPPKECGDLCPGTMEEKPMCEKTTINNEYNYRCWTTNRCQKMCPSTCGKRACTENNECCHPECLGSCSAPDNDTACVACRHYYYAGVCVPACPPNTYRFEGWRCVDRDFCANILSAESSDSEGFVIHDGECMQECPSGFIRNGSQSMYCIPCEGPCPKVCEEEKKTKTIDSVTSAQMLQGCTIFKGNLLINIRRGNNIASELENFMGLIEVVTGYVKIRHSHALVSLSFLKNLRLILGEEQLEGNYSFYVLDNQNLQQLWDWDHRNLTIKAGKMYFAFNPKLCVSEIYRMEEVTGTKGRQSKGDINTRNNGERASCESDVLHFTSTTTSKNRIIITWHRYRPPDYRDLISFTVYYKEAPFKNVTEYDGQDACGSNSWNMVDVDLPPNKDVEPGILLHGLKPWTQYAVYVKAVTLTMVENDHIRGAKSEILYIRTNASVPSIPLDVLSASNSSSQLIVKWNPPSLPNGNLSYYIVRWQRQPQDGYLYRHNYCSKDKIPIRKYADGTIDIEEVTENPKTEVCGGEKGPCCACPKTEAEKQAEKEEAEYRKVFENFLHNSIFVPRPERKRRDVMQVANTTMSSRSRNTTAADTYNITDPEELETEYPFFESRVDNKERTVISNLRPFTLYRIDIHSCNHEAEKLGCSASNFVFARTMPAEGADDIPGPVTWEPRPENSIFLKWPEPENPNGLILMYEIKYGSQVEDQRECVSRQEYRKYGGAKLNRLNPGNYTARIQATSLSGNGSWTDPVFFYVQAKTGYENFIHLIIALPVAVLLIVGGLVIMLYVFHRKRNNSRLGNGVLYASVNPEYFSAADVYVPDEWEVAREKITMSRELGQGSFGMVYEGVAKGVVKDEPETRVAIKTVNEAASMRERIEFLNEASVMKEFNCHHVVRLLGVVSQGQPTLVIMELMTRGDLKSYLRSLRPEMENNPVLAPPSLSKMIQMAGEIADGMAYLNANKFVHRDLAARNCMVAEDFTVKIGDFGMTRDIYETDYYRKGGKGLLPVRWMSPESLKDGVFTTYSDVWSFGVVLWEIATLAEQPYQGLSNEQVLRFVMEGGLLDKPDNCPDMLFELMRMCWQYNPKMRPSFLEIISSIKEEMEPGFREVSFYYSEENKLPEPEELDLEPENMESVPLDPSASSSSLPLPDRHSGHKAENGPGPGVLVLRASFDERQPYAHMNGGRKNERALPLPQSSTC

For the molecule `COc1cc(C(=O)N2CCC(N3CCN(C)CC3)CC2)ccc1Nc1ncc2c(n1)N(C)c1ccccc1C(=O)N2C` [15 (LRRK2-IN-1)], the “KINOMEscan: IGF1R” value at panel of 442 kinases [1] turned out to be 96. In addition, on panel of 442 kinases [2], the “KINOMEscan: LIMK2” value is 100. In addition, the “% Ctrl, SRPK2” value on panel of 442 kinases [3] is recorded as 100 % Ctrl.

Turning to `COc1cc(C(=O)N2CCC(N3CCN(C)CC3)CC2)ccc1Nc1ncc2c(n1)N1CCc3cccc(c31)C(=O)N2C` [Compound 24], the “% Ctrl, SRPK2” value on panel of 442 kinases [3] is recorded as 98 % Ctrl.

As for `COc1cc(C(=O)N2CCC(N3CCN(C)CC3)CC2)ccc1Nc1ncc2c(n1)N(C1CCCC1)c1ccccc1C(=O)N2C` [Compound 25, 11-cyclopentyl-2-((2-methoxy-4-(4-(4-methylpiperazin-1-yl)piperidine-1-carbonyl)phenyl)amino)-5-methyl-5H-benzo[e]pyrimido[5,4-b][1,4]diazepin-6(11H)-one], the “KINOMEscan: IGF1R” value at panel of 442 kinases [1] stood at 89. The “KINOMEscan: LIMK2” value at panel of 442 kinases [2] came out at 100. In addition, the “% Ctrl, SRPK2” value on panel of 442 kinases [3] worked out at 86 % Ctrl.

For the molecule `CCOc1cc(C(=O)N2CCC(N3CCN(C)CC3)CC2)ccc1Nc1ncc2c(n1)N(C1CCCC1)c1ccccc1C(=O)N2C` [Compound 26], the “KINOMEscan: IGF1R” value on panel of 442 kinases [1] is given as 100. Besides, at panel of 442 kinases [2], the “KINOMEscan: LIMK2” value is listed as 100. For the same molecule, the “% Ctrl, SRPK2” value at panel of 442 kinases [3] is listed as 100 % Ctrl.

The values above are taken from PMC3914206.
